From patent publication US20150335671A1, “SMALL-MOLECULE BINDING SITE ON PRO-APOPTOTIC BAX REGULATES INHIBITION OF BAX ACTIVITY” (ALBERT EINSTEIN COLLEGE OF MEDICINE OF YESHIVA UNIVERSITY, priority 2013, published 2015)

Columns and labels:
[1] = tested on: cardiac myocytes; experiment: Cardiac myocyte cell death under hypoxia / normoxia; type: cell-based
From the text: Accordingly, it can be seen that inhibitor compounds which bind to the novel BAX site can protect cardiac myocytes from cell death induced by hypoxia.

[2] = tested on: mitochondrial apoptosis-induced channel; settings: Peixoto et al. Biochem J. 2009; cited from earlier work
[3] = biological target: T1, BAX (Homo sapiens, UniProt Q07812); experiment: Liposome release assay (ANTS/DPX release by tBID-activated BAX); type: biochemical
Procedure: FIG. 3. Left: Kinetic trace of percent release of ANTS and DPX from liposomes in response to tBID activated BAX in the absence (blue) and presence of iMAC1 (green) and iMAC2 (Red). Right: Percent release after 20 minutes at different doses of iMAC1 (green), iMAC2 (red) and iMAC3 (blue). Each molecule was tested at 6, 3 and 1.5 μM, high to low doses are indicated by dark to light tones.
FIG. 18A-18B. […] B) Docked structure of […] within the novel BAX site.
iMAC1 and iMAC2 Inhibit BAX Activation in Liposome Release Assays: Liposomes containing the fluorophore, ANTS, and the quencher, DPX, were incubated with 200 nM BAX activated with 30 nM tBID resulting in BAX-mediated pore formation in the liposomal membrane and release of ANTS and DPX.

[4] = biological target: T1, BAX; experiment: NMR chemical shift perturbation of 15N-BAX upon titration; type: binding
From the text: FIG. 4A-B. Measured chemical shift changes of 15N-BAX upon iMAC1 and iMAC2 titration up to a ratio of 1:4 BAX:iMAC are plotted as a function of BAX residue number. Residues with significant backbone amide chemical shift change are highlighted in orange. Highest significant chemical shift changes (twice the calculated significance threshold) are highlighted in red. […] Chemical shift changes in other regions of the structure are not localized and predominantly occur in hydrophobic residues at the hydrophobic core of the BAX structure. Regions that previously identified to be involved in regulating BAX activation are shown in violet shading (helix α1 and α6), teal shading (helix α2) and yellow shading (helix α9).
FIG. 13: Measured chemical shift changes of ^15N-BAX upon octyl glucoside detergent titration, below the detergent's CMC point, are plotted as a function of BAX residue number. Residues with significant backbone amide chemical shift change are highlighted in orange. Highest significant chemical shift changes (twice the calculated significance threshold) are highlighted in red.
Significant CSP mapped onto the surface and ribbon depictions of BAX (FIG. 5), the BAX trigger site (blue), the canonical BH3-binding site and a9 (green) are included for comparison. Affected residues are represented by the orange and red spheres in the ribbon diagram and by the orange and red bars in the plot (the calculated significance threshold is marked in orange and is equal to the average shift plus the standard deviation while values at double the threshold are marked in red).

[5] = biological target: oligomeric BAX (Homo sapiens, UniProt Q07812); experiment: Ligand-observed NMR (chemical shift, STD, WATER LOGSY); type: binding; settings: aromatic peaks of ligand observed
From the text: FIG. 22. iMACs bind to both monomer and oligomeric BAX.
iMACs Bind to Both Monomeric and Oligomeric BAX in vitro.

T1 sequence (Q07812 whole entry): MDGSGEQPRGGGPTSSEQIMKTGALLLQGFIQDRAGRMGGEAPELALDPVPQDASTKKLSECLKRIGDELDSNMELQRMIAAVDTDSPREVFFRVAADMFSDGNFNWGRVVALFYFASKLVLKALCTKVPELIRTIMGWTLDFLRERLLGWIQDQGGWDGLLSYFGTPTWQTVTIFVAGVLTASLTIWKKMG
oligomeric BAX, sequence (Q07812 whole entry): as above

## OC(CN1CCNCC1)Cn1c2ccc(Br)cc2c2cc(Br)ccc21 (stereo not shown) [iMAC1]
[1]; hypoxia, compared to vehicle (0.2% DMSO)
  protection from cell death: protects cardiac myocytes from cell death induced by hypoxia
[1]; normoxia
  effect on cardiac myocytes: no effect
[2]
  inhibition of cytochrome c release and mitochondrial apoptosis-induced channel activity: more potent inhibitors

## Cl.Cl.FC(CN1CCNCC1)Cn1c2ccc(Br)cc2c2cc(Br)ccc21 (stereo not shown) [iMAC2]
[3]; 200 nM BAX, 30 nM tBID, tested at 6, 3 and 1.5 μM, release after 20 minutes
  inhibition of tBID-induced BAX activation and BAX pore formation (release of ANTS and DPX from liposomes): inhibit tBID-induced BAX activation and BAX pore formation
[4]; iMAC titration up to a ratio of 1:4 BAX:iMAC
  region of chemical shift changes of 15N-BAX: concentrated in the region formed by helices α3, α4, α5 and loop α3-α4
[5]
  binding to oligomeric BAX: binding to both oligomeric BAX
[2]
  inhibition of cytochrome c release and mitochondrial apoptosis-induced channel activity: more potent inhibitors

## CCCCCCCCO[C@@H]1O[C@H](CO)[C@@H](O)[C@H](O)[C@H]1O [n-octyl-3-D-glucoside]
[3]; concentrations well below the critical micelle concentration (CMC)
  inhibition of BAX activation and BAX-mediated pore formation in liposomal membranes: inhibits BAX activation and BAX-mediated pore formation
[4]; detergent titration below the detergent's CMC point
  region of chemical shift changes of 15N-BAX: concentrated in the region formed by helices α3, α4, α5, α6 and loop α3-α4
[4]; octyl glucoside titration, FIG. 13
  binding to the novel BAX site by NMR analysis: binding to the novel site that regulates BAX inhibition
